Test results reported in US4866039A, “Peptides containing the 18 to 23 residues of vasoactive intestinal peptide, and analogues” (Beecham Group p.l.c., priority 1985, dated 1989).
Residues, ends and D or L forms follow the SMILES beside them.

System: rat proximal duodenum
Test: acid disposal capacity of the rat proximal duodenum (anti-ulcer activity)
Format: in vivo
Details: anaesthetized male Wistar rats; input pH 2.5, second pass; 150nmol/kg/h i.v. infusion; significance P<0.05
Protocol: Method for estimating the acid disposal capacity of the rat proximal duodenum
Male Wistar rats, 180-250g bodyweight, fasted overnight, are anaesthetized with urethane (150mg/100g bodyweight i.m.). The trachea is cannulated, and a gastric cannula, 0.5cm i.d., 3cm long, is inserted into the non-glandular forestomach via a mid-line abdominal incision. The intragastric cannula is exteriorized via a stab wound in the body wall. A triple lumen catheter, 0.3cm o.d., is passed via the gastric cannula through the pylorus. The duodenum is ligated 1cm below the pylorus, and the pylorus ligated around the cannula, thus creating a 1cm proximal duodenal pouch excluding pancreatic and biliary secretions. The two ligatures enclosing the duodenal pouch are placed so as to avoid occluding the blood supply to the duodenal segment. Gastric secretions are allowed to drain freely from the gastric cannula. Compounds are administered dissolved in 0.9% sodium chloride (saline) as a 1.2 ml/h infusion via a catheter inserted in a jugular vein.
The triple lumen catheter is connected as follows. […]
Lumen 2 collects the perfusate and delivers it to a flow cell containing a pH microelectrode. Outflow pH is recorded throughout the experiment. […]
A group size of 6 animals or larger is used and the effect of compounds on the output pH compared to control data determined. […]

CC(C)C[C@H](NC(=O)[C@H](Cc1ccc(O)cc1)NC(=O)[C@H](CCCCN)NC(=O)[C@H](CCCCN)NC(=O)[C@@H](NC(=O)[C@H](C)N)C(C)C)C(N)=O [Example 1, H-Ala-Val-Lys-Lys-Tyr-Leu-NH2] (H-AVKKYL-NH2)
acid disposal (output pH compared to control): significant increase in acid disposal
